Consider ten compounds from patent US20240116985A1, “STAPLED PEPTIDES AND METHODS THEREOF” (priority 2020, published 2024).

Test [1] deals with T1, full-length beta-Catenin (Uniprot ID P35222) (Homo sapiens, UniProt P35222).
T1 construct: 10 nM full-length beta-Catenin (Uniprot ID P35222)
T1 sequence (P35222 1-781): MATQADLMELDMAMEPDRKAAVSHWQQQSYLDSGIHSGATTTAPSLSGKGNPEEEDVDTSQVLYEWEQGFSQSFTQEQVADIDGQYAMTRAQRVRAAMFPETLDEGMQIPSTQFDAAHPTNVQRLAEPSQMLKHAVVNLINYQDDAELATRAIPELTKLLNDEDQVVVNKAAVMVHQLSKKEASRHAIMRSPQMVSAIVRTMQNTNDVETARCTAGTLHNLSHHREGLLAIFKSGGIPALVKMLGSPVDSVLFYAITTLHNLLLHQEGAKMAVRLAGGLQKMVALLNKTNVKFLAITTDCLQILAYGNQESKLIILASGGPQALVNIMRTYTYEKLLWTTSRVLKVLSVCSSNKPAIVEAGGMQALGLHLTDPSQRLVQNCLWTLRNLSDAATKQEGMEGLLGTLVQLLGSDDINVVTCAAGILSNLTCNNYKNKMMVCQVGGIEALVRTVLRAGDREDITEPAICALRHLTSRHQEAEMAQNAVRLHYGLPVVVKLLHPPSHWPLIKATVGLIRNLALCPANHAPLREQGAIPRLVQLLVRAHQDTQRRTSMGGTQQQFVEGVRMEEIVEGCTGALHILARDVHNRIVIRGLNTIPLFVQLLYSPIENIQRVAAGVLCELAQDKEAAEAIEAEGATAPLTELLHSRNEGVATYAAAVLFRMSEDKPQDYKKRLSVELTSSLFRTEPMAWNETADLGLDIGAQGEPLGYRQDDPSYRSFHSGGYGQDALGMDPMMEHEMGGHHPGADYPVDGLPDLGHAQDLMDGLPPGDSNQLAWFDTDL
Put plainly: Fluorescence polarization IC50 (beta-catenin / 5FAM-TCF4 10-53 competition). The test is classed as binding. The note with it: fluorescence polarization; read-out: beta-Catenin FP IC50.

Test [2] addresses T2, beta-catenin/TCF4 engagement (Homo sapiens, UniProt P35222).
T2 construct: expressed in transfected cells; host or cells: HEK293
T2 sequence (P35222 1-781): T1 sequence (P35222 1-781)
Put plainly: Nano-BRET target engagement assay (B-cat-Halo & TCF4-Luc in HEK293 cells). The test is classed as cell-based. The note with it: absolute IC50; read-out: NanoBRET Abs IC50. For orientation: Bioluminescence resonance energy transfer reports proximity on the nanometre scale.

As to `COC(=O)C[C@@H]1NC(=O)[C@]2(CC=CCCCC3(CCCC=CCCCOC(=O)N4CC[C@@](C(=O)N[C@@H](Cc5ccsc5)C(=O)N[C@@H](Cc5csc6ccccc56)C(=O)N[C@@H](CCC(N)=O)C(N)=O)(C4)NC(=O)[C@H](CC(C)C)NC(=O)[C@H](Cc4ccccc4)NC(=O)[C@H](C)NC(=O)[C@H](C)NC(=O)[C@H](CC(=O)O)NC(=O)[C@H](CC(=O)O)NC3=O)NC(=O)[C@H](CC(C)(C)C)NC1=O)CCCN2C(C)=O` (stereo partly drawn) [I-2359, Ac-PL3-[Me]AspE-Npg-B5-Asp-Asp-Ala-Ala-Phe-Leu-PyrS2-3Thi-BztA-Gln-NH2], the IC50 – broadly, the midpoint of a concentration-inhibition curve – in test [1] was 424 nM; in test [2], more than 20000 nM.

With `COC(=O)C[C@@H]1NC(=O)C2(CCCC=CCCCOC(=O)N3CC[C@@](C(=O)N[C@@H](Cc4ccsc4)C(=O)N[C@@H](Cc4csc5ccccc45)C(=O)N[C@@H](CCC(N)=O)C(N)=O)(C3)NC(=O)[C@H](CC(C)C)NC(=O)[C@H](Cc3ccccc3)NC(=O)[C@H](C)NC(=O)[C@H](C)NC(=O)[C@H](CC(=O)O)NC1=O)CCCC=CC[C@]1(CCCN1C(C)=O)C(=O)N[C@@H](CC(=O)O)C(=O)N[C@@H](CC(C)(C)C)C(=O)N2` (stereo partly drawn) [I-2360, Ac-PL3-Asp-Npg-B5-[Me]AspE-Asp-Ala-Ala-Phe-Leu-PyrS2-3Thi-BztA-Gln-NH2], the IC50 in test [1] was 2440 nM; in test [2], more than 20000 nM.

Turning to `COC(=O)C[C@@H]1NC(=O)[C@H](CC(=O)O)NC(=O)C2(CCCC=CCCCOC(=O)N3CC[C@@](C(=O)N[C@@H](Cc4ccsc4)C(=O)N[C@@H](Cc4csc5ccccc45)C(=O)N[C@@H](CCC(N)=O)C(N)=O)(C3)NC(=O)[C@H](CC(C)C)NC(=O)[C@H](Cc3ccccc3)NC(=O)[C@H](C)NC(=O)[C@H](C)NC1=O)CCCC=CC[C@]1(CCCN1C(C)=O)C(=O)N[C@@H](CC(=O)O)C(=O)N[C@@H](CC(C)(C)C)C(=O)N2` (stereo partly drawn) [I-2361, Ac-PL3-Asp-Npg-B5-Asp-[Me]AspE-Ala-Ala-Phe-Leu-PyrS2-3Thi-BztA-Gln-NH2], the IC50 turned out to be 349 nM in test [1] and 36700 nM in test [2].

`CC(=O)N1CCC[C@]12CC=CCCCC1(CCCC=CCCCOC(=O)N3CC[C@@](C(=O)N[C@@H](Cc4ccccc4C(F)(F)F)C(=O)N[C@@H](Cc4csc5ccccc45)C(=O)N[C@@H](C)C(N)=O)(C3)NC(=O)[C@H](CC(C)C)NC(=O)[C@H](Cc3ccccc3)NC(=O)[C@H](C)NC(=O)[C@H](CCC(N)=O)NC(=O)[C@H](Cn3cc(CCC(=O)O)nn3)NC(=O)[C@H](CC(=O)O)NC1=O)NC(=O)[C@H](CC(C)(C)C)NC(=O)[C@H](CC(=O)O)NC2=O` (stereo partly drawn) [I-2367, Ac-PL3-Asp-Npg-B5-Asp-[CH2CH2CO2H]TriAzDap-Gln-Ala-Phe-Leu-PyrS2-2F3MeF-BztA-Ala-NH2]: the IC50 amounted to 7 nM in test [1] and 6200 nM in test [2].

For the compound `CC(=O)N1CCC[C@]12CC=CCCCC1(CCCC=CCCCOC(=O)N3CC[C@@](C(=O)N[C@@H](Cc4ccccc4C(F)(F)F)C(=O)N[C@@H](Cc4csc5ccccc45)C(=O)N[C@@H](C)C(N)=O)(C3)NC(=O)[C@H](CC(C)C)NC(=O)[C@H](Cc3ccccc3)NC(=O)[C@H](C)NC(=O)[C@H](CCC(N)=O)NC(=O)[C@H](Cn3cc(CC(C)(C)C(=O)O)nn3)NC(=O)[C@H](CC(=O)O)NC1=O)NC(=O)[C@H](CC(C)(C)C)NC(=O)[C@H](CC(=O)O)NC2=O` (stereo partly drawn) [I-2368, Ac-PL3-Asp-Npg-B5-Asp-[CH2CMe2CO2H]TriAzDap-Gln-Ala-Phe-Leu-PyrS2-2F3MeF-BztA-Ala-NH2], the IC50 in test [1] was 5 nM; in test [2], 5000 nM.

For the compound `CC(=O)N1CCC[C@]12CC=CCCCC1(CCCC=CCCCOC(=O)N3CC[C@@](C(=O)N[C@@H](Cc4ccccc4C(F)(F)F)C(=O)N[C@@H](Cc4csc5ccccc45)C(=O)N[C@@H](C)C(N)=O)(C3)NC(=O)[C@H](CC(C)C)NC(=O)[C@H](Cc3ccccc3)NC(=O)[C@H](C)NC(=O)[C@H](CCC(N)=O)NC(=O)[C@H](Cn3cc(C(C)(C)C(=O)O)nn3)NC(=O)[C@H](CC(=O)O)NC1=O)NC(=O)[C@H](CC(C)(C)C)NC(=O)[C@H](CC(=O)O)NC2=O` (stereo partly drawn) [I-2369, Ac-PL3-Asp-Npg-B5-Asp-[CMe2CO2H]TriAzDap-Gln-Ala-Phe-Leu-PyrS2-2F3MeF-BztA-Ala-NH2], the IC50 came to 14 nM in test [1] and 9500 nM in test [2].

For `CC(=O)N1CCC[C@]12CC=CCCCC1(CCCC=CCCCOC(=O)N3CC[C@@](C(=O)N[C@@H](Cc4ccccc4C(F)(F)F)C(=O)N[C@@H](Cc4csc5ccccc45)C(=O)N[C@@H](CO)C(N)=O)(C3)NC(=O)[C@H](CC(C)C)NC(=O)[C@H](Cc3ccccc3)NC(=O)[C@H](C)NC(=O)[C@H](C)NC(=O)[C@H](Cn3cc(CCC(=O)O)nn3)NC(=O)[C@H](CC(=O)O)NC1=O)NC(=O)[C@H](CC(C)(C)C)NC(=O)[C@H](CC(=O)O)NC2=O` (stereo partly drawn) [I-2371, Ac-PL3-Asp-Npg-B5-Asp-[CH2CH2CO2H]TriAzDap-Ala-Ala-Phe-Leu-PyrS2-2F3MeF-BztA-Ser-NH2], the IC50 in test [1] was found to be 5 nM; in test [2], 5000 nM.

On to `CC(=O)N1CCC[C@]12CC=CCCCC1(CCCC=CCCCOC(=O)N3CC[C@@](C(=O)N[C@@H](Cc4ccccc4C(F)(F)F)C(=O)N[C@@H](Cc4csc5ccccc45)C(=O)N[C@@H](CO)C(N)=O)(C3)NC(=O)[C@H](CC(C)C)NC(=O)[C@H](Cc3ccccc3)NC(=O)[C@H](C)NC(=O)[C@H](C)NC(=O)[C@H](Cn3cc(CC(=O)O)nn3)NC(=O)[C@H](CC(=O)O)NC1=O)NC(=O)[C@H](CC(C)(C)C)NC(=O)[C@H](CC(=O)O)NC2=O` (stereo partly drawn) [I-2373, Ac-PL3-Asp-Npg-B5-Asp-[CH2CO2H]TriAzDap-Ala-Ala-Phe-Leu-PyrS2-2F3MeF-BztA-Ser-NH2], for which the IC50 in test [1] worked out at 5 nM; in test [2] it was 4000 nM.

Turning to `CCCc1cn(CCCC[C@H](NC(=O)[C@H](Cc2csc3ccccc23)NC(=O)[C@H](Cc2ccsc2)NC(=O)[C@]23CCN(C2)C(=O)OCCCC=CCCCC2(CCCC=CC[C@]4(CCCN4C(C)=O)C(=O)N[C@@H](CC(=O)O)C(=O)N[C@@H](CC(C)(C)C)C(=O)N2)C(=O)N[C@@H](CC(=O)O)C(=O)N[C@@H](CC(=O)O)C(=O)N[C@@H](C)C(=O)N[C@@H](C)C(=O)N[C@@H](Cc2ccccc2)C(=O)N[C@@H](CC(C)C)C(=O)N3)C(N)=O)nn1` (stereo partly drawn) [I-2375, Ac-PL3-Asp-Npg-B5-Asp-Asp-Ala-Ala-Phe-Leu-PyrS2-3Thi-BztA-[3C]TriAzLys-NH2], the IC50 is 5 nM in test [1] and 13500 nM in test [2].

Turning to `CC(=O)N1CCC[C@]12CC=CCCCC1(CCCC=CCCCOC(=O)N3CC[C@@](C(=O)N[C@@H](Cc4ccccc4C(F)(F)F)C(=O)N[C@@H](Cc4csc5ccccc45)C(=O)N[C@@H](CCC(N)=O)C(=O)N[C@@H](CC(C)C)C(=O)N[C@H](C(N)=O)C(C)C)(C3)NC(=O)[C@H](CC(C)C)NC(=O)[C@H](Cc3ccccc3)NC(=O)[C@H](C)NC(=O)[C@H](C)NC(=O)[C@H](Cc3cccc(C(=O)O)c3)NC(=O)[C@H](CC(=O)O)NC1=O)NC(=O)[C@H](CC(C)(C)C)NC(=O)[C@H](CC(=O)O)NC2=O` (stereo partly drawn) [I-2379, Ac-PL3-Asp-Npg-B5-Asp-3COOHF-Ala-Ala-Phe-Leu-PyrS2-2F3MeF-BztA-Gln-Leu-Val-NH2], the 50% inhibitory concentration (IC50) in test [1] was 246 nM; in test [2], 5000 nM.
